Measurements as given in ChEMBL document CHEMBL5316339, “Discovery of a Series of Substituted 1H-((1,2,3-Triazol-4-yl)methoxy)pyrimidines as Brain Penetrants and Potent GluN2B-Selective Negative Allosteric Modulators” (J Med Chem, 2023).
Values after ≈ are worked out from the molar mass of the structure shown.

How the values were obtained:
[1] = target: Glutamate receptor ionotropic, NMDA 2B (Rattus norvegicus, UniProt Q00960); assay: Displacement of 3-(3H) 1-(azetidin-1-yl)-2-(6- (4-fluoro-3-methyl-phenyl)pyrrolo-[…] pyridin-1yl)ethanone from GluN2B receptor in rat cortical membrane assessed as inhibition constant incubated for 2 hrs under shaking condition by liquid scintillator counter analysis; format: cell membranes, Cortex
[2] = target: Glutamate NMDA receptor; GRIN1/GRIN2B (Homo sapiens, UniProt Q05586+Q13224); assay: Negative allosteric modulation of human GluN1A/GluN2B receptor expressed in T-REX-CHO cells preincubated for 5 mins followed by glutamate and glycine addition and measured after 5 mins by FLIPR assay; format: cell-based
[3] = system: MDR1 (P-gp); assay: Efflux ratio of apparent permeability from basolateral to apical side over apical to basolateral side in MDCK-MDR1 cells at 5 uM incubated for 60 mins by LC-MS/MS analysis; format: ADME, cell-based, Canis lupus familiaris; conditions: dog
[4] = Thermodynamic solubility in aqueous phosphate buffer at pH 7; format: physicochemical; conditions: read-out: Therm_solubility
[5] = Thermodynamic solubility in aqueous phosphate buffer at pH 2; format: physicochemical; conditions: read-out: Therm_solubility
[6] = target: Voltage-gated inwardly rectifying potassium channel KCNH2 (Homo sapiens, UniProt Q12809); assay: Displacement of [3H]dofetilide from human ERG expressed in HEK293 cells; format: toxicity, cell-based
[7] = target: T1, Cytochrome P450 1A2 (Homo sapiens, UniProt P05177); assay: Inhibition of CYP1A2 in human liver microsomes incubated for 10 mins by LC-MS/MS analysis; format: ADME, Microsome
T1 sequence (P05177 whole entry): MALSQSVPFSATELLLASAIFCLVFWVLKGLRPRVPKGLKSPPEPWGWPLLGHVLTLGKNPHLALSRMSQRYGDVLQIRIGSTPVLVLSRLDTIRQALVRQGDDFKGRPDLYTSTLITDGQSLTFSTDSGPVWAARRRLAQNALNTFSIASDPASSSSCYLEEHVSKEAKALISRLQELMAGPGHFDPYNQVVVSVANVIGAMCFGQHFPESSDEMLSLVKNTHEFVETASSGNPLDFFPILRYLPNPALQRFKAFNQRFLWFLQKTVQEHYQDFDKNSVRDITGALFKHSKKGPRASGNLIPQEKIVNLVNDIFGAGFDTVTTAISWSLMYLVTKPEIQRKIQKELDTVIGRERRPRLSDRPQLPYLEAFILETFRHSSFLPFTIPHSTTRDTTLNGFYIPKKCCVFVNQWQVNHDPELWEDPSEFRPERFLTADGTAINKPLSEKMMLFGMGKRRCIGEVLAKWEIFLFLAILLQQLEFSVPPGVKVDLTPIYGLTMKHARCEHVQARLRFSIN

[8] = target: Cytochrome P450 2C9 (Homo sapiens, UniProt P11712); assay: Inhibition of CYP2C9 in human liver microsomes incubated for 10 mins by LC-MS/MS analysis; format: ADME, Microsome
[9] = target: Cytochrome P450 3A4 (Homo sapiens, UniProt P08684); assay: Inhibition of CYP3A4 in human liver microsomes incubated for 10 mins by LC-MS/MS analysis; format: ADME, Microsome
[10] = target: Cytochrome P450 2C19 (Homo sapiens, UniProt P33261); assay: Inhibition of CYP2C19 in human liver microsomes incubated for 10 mins by LC-MS/MS analysis; format: ADME, Microsome
[11] = target: Cytochrome P450 2D6 (Homo sapiens, UniProt P10635); assay: Inhibition of CYP2D6 in human liver microsomes incubated for 10 mins by LC-MS/MS analysis; format: ADME, Microsome
[12] = target: T2, Cytochrome P450 2C8 (Homo sapiens, UniProt P10632); assay: Inhibition of CYP2C8 in human liver microsomes incubated for 10 mins by LC-MS/MS analysis; format: ADME, Microsome
T2 sequence (P10632 whole entry): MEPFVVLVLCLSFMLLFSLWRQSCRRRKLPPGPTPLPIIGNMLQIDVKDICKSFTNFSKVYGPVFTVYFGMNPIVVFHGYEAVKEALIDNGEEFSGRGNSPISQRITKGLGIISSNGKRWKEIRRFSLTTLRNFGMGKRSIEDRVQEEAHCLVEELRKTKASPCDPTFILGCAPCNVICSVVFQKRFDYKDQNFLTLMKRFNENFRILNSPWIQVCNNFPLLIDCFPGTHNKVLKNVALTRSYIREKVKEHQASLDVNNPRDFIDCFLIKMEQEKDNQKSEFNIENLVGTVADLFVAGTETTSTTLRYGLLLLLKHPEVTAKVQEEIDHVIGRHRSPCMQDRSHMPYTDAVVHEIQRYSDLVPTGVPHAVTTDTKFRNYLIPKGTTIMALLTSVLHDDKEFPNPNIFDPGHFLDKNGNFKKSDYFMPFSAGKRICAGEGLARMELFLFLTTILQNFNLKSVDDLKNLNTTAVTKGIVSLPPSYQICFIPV

[13] = Metabolic stability in human liver microsomes assessed as extraction ratio; format: ADME, Microsome; conditions: read-out: ERH
[14] = Metabolic stability in rat liver microsomes assessed as extraction ratio; format: ADME, Microsome; conditions: read-out: ERH

Cytochrome P450 2D6, sequence (P10635 whole entry): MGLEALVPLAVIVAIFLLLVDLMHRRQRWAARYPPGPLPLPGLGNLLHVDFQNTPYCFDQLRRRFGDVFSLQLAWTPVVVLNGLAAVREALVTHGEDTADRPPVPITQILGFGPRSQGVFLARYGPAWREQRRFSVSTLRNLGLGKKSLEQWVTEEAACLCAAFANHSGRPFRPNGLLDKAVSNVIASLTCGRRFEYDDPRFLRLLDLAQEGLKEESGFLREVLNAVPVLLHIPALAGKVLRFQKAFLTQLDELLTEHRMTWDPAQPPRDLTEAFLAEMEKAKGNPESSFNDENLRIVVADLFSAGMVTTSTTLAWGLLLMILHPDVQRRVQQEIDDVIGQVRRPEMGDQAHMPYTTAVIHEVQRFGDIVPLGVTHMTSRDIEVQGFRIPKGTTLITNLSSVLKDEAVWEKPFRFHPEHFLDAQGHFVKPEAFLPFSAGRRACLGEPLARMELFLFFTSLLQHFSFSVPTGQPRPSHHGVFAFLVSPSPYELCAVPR
Voltage-gated inwardly rectifying potassium channel KCNH2, sequence (Q12809 whole entry): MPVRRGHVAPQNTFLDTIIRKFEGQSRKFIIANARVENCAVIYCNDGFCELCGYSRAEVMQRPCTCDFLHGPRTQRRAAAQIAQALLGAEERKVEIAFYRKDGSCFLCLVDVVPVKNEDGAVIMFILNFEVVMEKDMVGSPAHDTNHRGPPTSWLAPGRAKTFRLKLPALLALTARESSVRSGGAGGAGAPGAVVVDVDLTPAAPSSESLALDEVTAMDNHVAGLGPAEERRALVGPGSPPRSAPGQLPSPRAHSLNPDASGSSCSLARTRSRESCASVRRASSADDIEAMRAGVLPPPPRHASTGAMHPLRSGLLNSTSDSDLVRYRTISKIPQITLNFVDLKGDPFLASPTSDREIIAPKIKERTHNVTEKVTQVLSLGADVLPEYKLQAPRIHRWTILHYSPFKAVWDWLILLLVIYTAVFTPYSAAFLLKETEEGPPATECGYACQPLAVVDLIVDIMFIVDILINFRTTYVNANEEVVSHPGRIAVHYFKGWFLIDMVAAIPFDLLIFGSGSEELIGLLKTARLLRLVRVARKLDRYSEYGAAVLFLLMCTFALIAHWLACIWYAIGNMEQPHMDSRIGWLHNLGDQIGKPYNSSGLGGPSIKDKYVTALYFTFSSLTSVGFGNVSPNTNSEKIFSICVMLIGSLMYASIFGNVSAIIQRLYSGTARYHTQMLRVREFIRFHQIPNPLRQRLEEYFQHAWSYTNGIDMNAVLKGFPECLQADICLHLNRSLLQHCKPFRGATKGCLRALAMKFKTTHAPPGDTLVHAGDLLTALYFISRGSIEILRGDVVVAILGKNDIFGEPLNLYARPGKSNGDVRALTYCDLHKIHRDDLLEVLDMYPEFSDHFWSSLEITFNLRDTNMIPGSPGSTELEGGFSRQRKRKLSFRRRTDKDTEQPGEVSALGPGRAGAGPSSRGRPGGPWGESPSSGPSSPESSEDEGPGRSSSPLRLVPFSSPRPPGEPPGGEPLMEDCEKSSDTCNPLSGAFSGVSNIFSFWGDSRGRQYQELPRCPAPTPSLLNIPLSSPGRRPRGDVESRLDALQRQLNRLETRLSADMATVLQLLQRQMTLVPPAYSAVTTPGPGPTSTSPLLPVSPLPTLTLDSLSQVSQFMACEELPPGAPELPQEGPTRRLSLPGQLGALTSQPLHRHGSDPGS
Cytochrome P450 2C19, sequence (P33261 whole entry): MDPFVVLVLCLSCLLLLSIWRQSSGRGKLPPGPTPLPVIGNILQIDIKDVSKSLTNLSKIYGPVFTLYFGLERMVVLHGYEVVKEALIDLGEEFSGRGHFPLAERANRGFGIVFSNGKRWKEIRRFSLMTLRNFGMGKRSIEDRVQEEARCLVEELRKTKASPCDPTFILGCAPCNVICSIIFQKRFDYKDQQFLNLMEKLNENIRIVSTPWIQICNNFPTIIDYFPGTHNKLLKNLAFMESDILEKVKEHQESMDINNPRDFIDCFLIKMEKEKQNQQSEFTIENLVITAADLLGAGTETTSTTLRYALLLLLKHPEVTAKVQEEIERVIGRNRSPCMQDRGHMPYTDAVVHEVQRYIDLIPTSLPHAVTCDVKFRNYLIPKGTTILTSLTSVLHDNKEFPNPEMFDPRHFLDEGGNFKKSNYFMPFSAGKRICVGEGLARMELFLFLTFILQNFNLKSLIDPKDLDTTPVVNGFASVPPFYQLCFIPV
Glutamate NMDA receptor; GRIN1/GRIN2B, sequence (Q13224 whole entry, other chains not shown): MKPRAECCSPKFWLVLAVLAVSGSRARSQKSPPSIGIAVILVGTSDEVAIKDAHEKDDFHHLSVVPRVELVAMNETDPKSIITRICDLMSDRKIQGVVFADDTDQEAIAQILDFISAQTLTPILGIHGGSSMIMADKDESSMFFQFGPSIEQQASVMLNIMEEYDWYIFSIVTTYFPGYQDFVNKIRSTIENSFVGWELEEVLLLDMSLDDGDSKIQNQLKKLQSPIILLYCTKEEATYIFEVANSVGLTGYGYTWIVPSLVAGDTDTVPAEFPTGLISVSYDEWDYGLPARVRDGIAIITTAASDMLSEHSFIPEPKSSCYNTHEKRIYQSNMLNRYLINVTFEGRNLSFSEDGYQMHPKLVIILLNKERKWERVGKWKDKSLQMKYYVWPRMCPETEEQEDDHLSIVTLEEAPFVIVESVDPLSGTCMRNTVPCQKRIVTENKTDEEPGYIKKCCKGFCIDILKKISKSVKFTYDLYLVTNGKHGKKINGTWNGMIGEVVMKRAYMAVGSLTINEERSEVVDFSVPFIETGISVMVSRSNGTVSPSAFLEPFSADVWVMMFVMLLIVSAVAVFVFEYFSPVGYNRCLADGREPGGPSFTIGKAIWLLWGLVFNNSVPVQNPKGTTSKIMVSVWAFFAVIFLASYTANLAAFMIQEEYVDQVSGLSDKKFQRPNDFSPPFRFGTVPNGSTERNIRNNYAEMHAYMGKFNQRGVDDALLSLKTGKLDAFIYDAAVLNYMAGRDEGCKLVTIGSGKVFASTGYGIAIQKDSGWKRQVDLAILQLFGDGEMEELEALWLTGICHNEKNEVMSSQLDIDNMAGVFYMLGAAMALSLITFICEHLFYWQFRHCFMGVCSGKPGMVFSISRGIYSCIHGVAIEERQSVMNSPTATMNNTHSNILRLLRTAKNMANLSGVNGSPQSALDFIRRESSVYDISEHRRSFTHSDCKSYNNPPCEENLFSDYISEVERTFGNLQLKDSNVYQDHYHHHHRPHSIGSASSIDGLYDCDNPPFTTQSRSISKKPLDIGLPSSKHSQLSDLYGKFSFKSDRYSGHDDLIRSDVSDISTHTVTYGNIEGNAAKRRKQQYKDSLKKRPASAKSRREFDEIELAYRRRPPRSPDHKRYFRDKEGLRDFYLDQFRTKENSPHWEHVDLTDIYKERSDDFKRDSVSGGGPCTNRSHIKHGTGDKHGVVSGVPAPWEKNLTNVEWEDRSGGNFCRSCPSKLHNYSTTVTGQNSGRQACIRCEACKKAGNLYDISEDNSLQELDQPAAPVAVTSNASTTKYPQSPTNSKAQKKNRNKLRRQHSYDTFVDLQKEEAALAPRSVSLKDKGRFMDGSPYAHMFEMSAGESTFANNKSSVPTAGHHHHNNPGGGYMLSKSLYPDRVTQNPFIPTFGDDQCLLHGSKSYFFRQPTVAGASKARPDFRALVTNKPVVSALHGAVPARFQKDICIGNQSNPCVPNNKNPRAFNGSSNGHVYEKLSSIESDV
Glutamate receptor ionotropic, NMDA 2B, sequence (Q00960 whole entry): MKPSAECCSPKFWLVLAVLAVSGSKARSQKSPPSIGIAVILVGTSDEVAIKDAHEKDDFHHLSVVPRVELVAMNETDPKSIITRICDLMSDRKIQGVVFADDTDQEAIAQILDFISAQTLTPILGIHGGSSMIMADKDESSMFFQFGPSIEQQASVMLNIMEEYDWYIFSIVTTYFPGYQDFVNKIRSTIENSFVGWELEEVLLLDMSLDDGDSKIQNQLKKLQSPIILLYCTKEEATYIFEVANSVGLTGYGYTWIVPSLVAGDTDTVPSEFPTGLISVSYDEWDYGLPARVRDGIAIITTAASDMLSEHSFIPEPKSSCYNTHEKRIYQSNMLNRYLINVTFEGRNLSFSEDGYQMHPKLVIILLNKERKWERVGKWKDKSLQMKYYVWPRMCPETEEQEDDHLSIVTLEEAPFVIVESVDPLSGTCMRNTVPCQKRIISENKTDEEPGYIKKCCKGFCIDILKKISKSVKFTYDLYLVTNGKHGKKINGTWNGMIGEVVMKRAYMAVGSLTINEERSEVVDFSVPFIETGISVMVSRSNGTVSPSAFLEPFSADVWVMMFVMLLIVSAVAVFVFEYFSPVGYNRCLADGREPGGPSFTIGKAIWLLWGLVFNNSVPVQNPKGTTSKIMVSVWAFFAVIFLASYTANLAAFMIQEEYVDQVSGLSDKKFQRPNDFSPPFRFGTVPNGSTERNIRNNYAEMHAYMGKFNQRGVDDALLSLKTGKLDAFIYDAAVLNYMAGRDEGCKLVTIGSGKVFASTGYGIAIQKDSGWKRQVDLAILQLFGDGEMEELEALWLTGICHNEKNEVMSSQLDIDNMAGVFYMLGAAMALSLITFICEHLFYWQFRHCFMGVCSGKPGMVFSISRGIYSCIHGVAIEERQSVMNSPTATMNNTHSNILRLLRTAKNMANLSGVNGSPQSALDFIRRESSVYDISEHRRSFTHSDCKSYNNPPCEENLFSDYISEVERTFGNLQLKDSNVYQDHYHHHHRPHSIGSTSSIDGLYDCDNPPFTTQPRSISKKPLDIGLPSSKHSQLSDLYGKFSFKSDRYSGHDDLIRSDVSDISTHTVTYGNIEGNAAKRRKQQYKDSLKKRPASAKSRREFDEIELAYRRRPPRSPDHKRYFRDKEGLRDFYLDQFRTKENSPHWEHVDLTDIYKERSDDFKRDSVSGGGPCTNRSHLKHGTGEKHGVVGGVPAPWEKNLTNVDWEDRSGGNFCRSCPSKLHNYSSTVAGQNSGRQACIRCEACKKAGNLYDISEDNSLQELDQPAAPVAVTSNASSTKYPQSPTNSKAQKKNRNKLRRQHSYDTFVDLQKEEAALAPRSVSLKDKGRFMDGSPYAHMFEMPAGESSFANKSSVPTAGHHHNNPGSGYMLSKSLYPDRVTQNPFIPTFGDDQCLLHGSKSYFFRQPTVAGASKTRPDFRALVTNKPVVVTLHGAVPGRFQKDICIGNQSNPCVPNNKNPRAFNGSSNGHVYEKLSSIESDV

Structure (SMILES)	Ki [1]	IC50 [2]	efflux ratio at 1 h, 5 µM [3]	solubility thermodynamic [4]	solubility thermodynamic [5]	IC50 [6]	IC50 [7]	IC50 [8]	IC50 [9]	IC50 [10]	IC50 [11]	IC50 [12]	hepatic extraction ratio [13]	hepatic extraction ratio [14]
FC(F)Oc1cc(-n2cc(COc3ccncn3)nn2)ccc1Cl	900 nM	840 nM	1.1											
Cc1ccnc(OCc2cn(-c3ccc(F)c(OC(F)F)c3)nn2)n1	13 nM	8.3 nM	0.9	70 µM (≈ 24.6 µg/mL)	92 µM (≈ 32.3 µg/mL)	> 10 µM								
Cc1cnc(OCc2nnn(-c3cccc(C(F)F)c3)c2C)nc1	3500 nM	1200 nM		320 µM (≈ 106 µg/mL)	210 µM (≈ 69.6 µg/mL)									
FC(F)Oc1cc(-n2cc(CNc3ncccn3)nn2)ccc1Cl	560 nM	360 nM	1.1			> 10 µM	> 10 µM	> 10000 nM	> 10000 nM	> 10 µM	> 10000 nM	> 10 µM		
Fc1cccnc1OCc1cn(C2CCC(Cl)C(OC(F)F)C2)nn1 (stereo not drawn)	889 nM	130 nM					5.2 µM			5.3 µM	2200 nM			
FC(F)Oc1cc(-n2cc(COc3cccnn3)nn2)ccc1Cl	1870 nM	580 nM												
Cc1cnc(OCc2cn(-c3ccc(Cl)c(OC(F)F)c3)nn2)nc1	1.3 nM	1.9 nM				5.6 µM							0.83	0.51
Nc1nc(OCc2cn(-c3ccc(F)c(OC(F)F)c3)nn2)ncc1F	44 nM	16 nM	3	28 µM (≈ 10.4 µg/mL)	560 µM (≈ 207 µg/mL)	> 10 µM								
Cc1cnc(OCc2cn(-c3cccc(C(F)F)c3)nn2)nc1	65 nM	25 nM		22 µM (≈ 6.98 µg/mL)	17 µM (≈ 5.39 µg/mL)	> 10 µM								
FC(F)Oc1cc(-n2cc(CNc3ncco3)nn2)ccc1Cl	810 nM	390 nM	1.5			> 10 µM	3.4 µM							
CC(C)(O)c1cnc(OCc2cn(-c3ccc(F)c(OC(F)F)c3)nn2)nc1	57 nM	49 nM	11.8	510 µM (≈ 202 µg/mL)	560 µM (≈ 221 µg/mL)	> 10 µM								
FC(F)Oc1cc(-n2cc(CNc3ccccn3)nn2)ccc1Cl	630 nM	500 nM	1			8 µM				7.9 µM				
FC(F)Oc1cc(-n2cc(COc3cnccn3)nn2)ccc1Cl	680 nM	600 nM	0.91											
FC(F)Oc1cc(-n2cc(Cn3ccnc3)nn2)ccc1Cl	35 nM	59 nM	3.9			> 10 µM	0.11 µM	1100 nM	2600 nM	0.42 µM	30 nM	3.4 µM		
CNc1ccnc(OCc2cn(-c3ccc(F)c(OC(F)F)c3)nn2)n1	10 nM	7.8 nM	7.7	24 µM (≈ 8.79 µg/mL)	> 400 µM	> 10 µM								
FC(F)Oc1cc(-n2cc(COc3cncnc3)nn2)ccc1Cl	1800 nM	2500 nM												
C[C@@H](Oc1ncccn1)c1cn(-c2ccc(Cl)c(OC(F)F)c2)nn1	67 nM												0.59	< 0.17
Cc1cnc(OCc2cn(-c3ccnc(C)c3)nn2)nc1	1900 nM	770 nM	1.2	530 µM (≈ 150 µg/mL)	560 µM (≈ 158 µg/mL)									
Fc1ccc(-n2cc(COc3nccc(N4CC(F)C4)n3)nn2)cc1OC(F)F	14 nM	16 nM	2.6	< 4 µM	> 400 µM	> 10 µM								
Fc1ccc(-n2cc(COc3ncc(N4CCC4)cn3)nn2)cc1OC(F)F	6.8 nM	11 nM	1	< 4 µM	11 µM (≈ 4.32 µg/mL)	> 10 µM								
